# According to patent US20060068118A1, “Silicon-containing treatments for solid substrates” (priority 2003, published 2006):
# How the values were obtained:
# E. Coli = test: Dynamic Shake Flask Test, % E. Coli reduction; assay type: cell-based; conditions: Example 4, AA 1.25 mg/inch^2, vs untreated control substrates
# Experimental: (§1) The BPB test is a standardized test known as the Bromphenol Blue Extraction Method having a Dow Corning Corporate test number 0824, except that the test was modified in the following manner. The chlorinated solvent has been eliminated and the wavelength is 595 nm. Further, the Dow Corning® Q25211 has been substituted for the Triton RTM.X100 wetting agent of the test. What is measured is the diminution of the BPB absorbance at 595 nm relative to the BPB standard solution and it is reported in percent extraction. Antimicrobial efficacy was determined using the Dow Corning Test Method 0923 Dynamic Shake Flask Test (ASTM E-2149-01) unless otherwise stated.
# Studies were carried out to determine if this invention was applicable to various substrates in the building products area, such as Oriented Strand Board (OSB), vinyl siding, polymer wood composite decking and dimensional lumber. The application process was: samples were cut to 2 inches by 2 inches and weighed prior to application. A hand pump mist sprayer was used to treat the substrate. The applications of the silicate/siliconate and (AA) were kept to a minimum of less than 3 seconds application timne. Treated samples were next rinsed with copious cold water to remove any excess treatment material. There was no heating or other curing or drying of the samples.
# test microbes = test: Dow Corning Test Method 0923 Dynamic Shake Flask Test (ASTM E-2149-01), Table I; assay type: cell-based; conditions: shingle, vs untreated controls
# Experimental: as §1
# Application technologies were compared for a shingle substrate at constant add levels and room temperature conditions. Samples were prepared as follows and compared. The Samples included: antimicrobial agent (AA) by itself (Sample 1) and the (AA) in 0.1M Na2C2O4 (Sample 2) with a polyoxyethylene nonylphenol (the surfactant). Sample 1 treated with Methyl Siliconate is Sample 3, Sample 1 treated with sodium silicate is Sample 4 and sample 1 treated with Everwood is Sample 5. The Samples were handled as in example 1 and tested.
# [1] = Reaction of hydrolyzed silanes with treatment enhancers, solution appearance; assay type: physicochemical
compound,measurement,setting,value
"CCCCCCCCCCCCCCCCCC[N+](C)(C)CCC[Si](OC)(OC)OC.[Cl-] [Sample 1, N,N-dimethyl-N-Octadecyl-3-(trimethoxysilyl)propanaminium chloride]",OSB % Red. ext. (% E. Coli Reduction),E. Coli; OSB,31%
same,decking % Red. ext. (% E. Coli Reduction),E. Coli; decking,0%
same,shingle % Red. ext. (% E. Coli Reduction),E. Coli; shingle,11%
same,siding % Red. ext. (% E. Coli Reduction),E. Coli; siding,0%
same,wood % Red. ext. (% E. Coli Reduction),E. Coli; wood,21%
same,% Reduction,test microbes; AA Actives 0.50%,0%
same,% Reduction,test microbes; AA Actives 1%,0%
"CCO[Si](CC(C)C)(OCC)OCC [Sample Z-6043, i-butyltriethoxysilane]",Appearance (at Time Min.),[1],clear
same,Appearance (at Time hours),[1],clear
potassium methyl siliconate [DC-777],appearance on standing,"[1]; treatment enhancer alone, 1.5% actives level, after 4 days of standing",white precipitate
